Assay results from patent US7273846B2, “Selective melanin-concentrating hormone type-1 receptor agonists” (priority 2002, dated 2007).
Residues, ends and D or L forms follow the SMILES beside them.

Assays:
MCH-1R [1] = molecular target: T1, MCH-1R (Homo sapiens, UniProt Q99705)
Experimental: (§3) For transient expression, COS-7 cells were cultured in Dulbecco's modified Eagle medium (Gibco BRL, Rockville, Md.) with 10% heat inactivated fetal calf serum.
(§4) A suspension of 7×10^6 COS-7 cells were transfected with 20 μg of pCI-neo/MCH-2R plasmid by electroporation and cells were harvested after 60-72 hours. Membranes were prepared from transient and stable transfectants by hypotonic lysis, frozen in liquid nitrogen, and stored at −80° C.
(§5) Assays were optimized with respect to membrane preparations: for CHO/MCH-1R membranes, 1 μg of membranes per well yielded a>6× specific binding window and for COS or CHO MCH-2R membranes, 8 μg of membrane protein yielded a window of about 3×.
(§6) Specific binding is defined as the difference between total binding and non-specific binding conducted in the presence of 500 nM unlabeled hMCH. […] After equilibrating at room temperature for 3 hours, the plates were read in a TopCount (Packard, Meriden, Conn.). IC50 calculations were performed using Prism 3.0 (GraphPad. Software, San Diego, Calif.). The IC50 values were measured in three different experiments.

MCH-1R [2] = molecular target: T1, MCH-1R; assay: biochemical
Experimental: as §3, §4, §5, §6

MCH-1R [3] = molecular target: T1, MCH-1R; assay: Aequorin bioluminescence functional assay, 293AEQ17/MCH-1R cells; assay type: cell-based; parameters: expressed in transfected cells; conditions: for MCH-1R Activation %: human MCH = 100, activation at 10 μM concentration; for fold lower agonist activity at hMCH-1R: relative to Ac-hMCH(6-16)-NH2; for EC50: aequorin, 293AEQ17/MCH-1R cells, read-out: MCH-1R EC50
Experimental: (§1) The aequorin bioluminescence assay is a reliable test for identifying G-protein-coupled receptors that couple through the G protein subunit family consisting of Gq and G11. Gq and G11 coupling leads to the activation of phospholipase C, mobilization of intracellular calcium, and activation of protein kinase C.
Stable cell lines expressing either the MCH-1R or the MCH-2R and the aequorin reporter protein were used. The assay was performed using a Luminoskan RT luminometer (Labsystems Inc., Gaithersburg, Md.) controlled by custom software written for a Macintosh PowerPC 6100.
(§2) The cells were harvested, washed once in ECB medium, and resuspended to 500,000 cells/mL. 100 μL of cell suspension (corresponding to 5×10^4 cells) was then injected into the test plate containing the hMCH peptides, and the integrated light emission was recorded over 30 seconds, in 0.5-s units. 20 μL of lysis buffer (0.1% final Triton X-100 concentration) was then injected and the integrated light emission recorded over 10 seconds, in 0.5-s units. The “fractional response” values for each well were calculated by taking the ratio of the integrated response to the initial challenge to the total integrated luminescence including the Triton X-100 lysis response.

MCH-2R [4] = molecular target: T2, MCH-2R (Homo sapiens, UniProt Q969V1); assay: Aequorin bioluminescence functional assay, 293AEQ17/MCH-2R cells; assay type: cell-based; parameters: expressed in transfected cells; MCH-2R Activation %: concentration or dose not given beside the values; conditions: for EC50: aequorin, 293AEQ17/MCH-2R cells; for MCH-2R Activation %: human MCH = 100
T2 sequence (Q969V1 whole entry): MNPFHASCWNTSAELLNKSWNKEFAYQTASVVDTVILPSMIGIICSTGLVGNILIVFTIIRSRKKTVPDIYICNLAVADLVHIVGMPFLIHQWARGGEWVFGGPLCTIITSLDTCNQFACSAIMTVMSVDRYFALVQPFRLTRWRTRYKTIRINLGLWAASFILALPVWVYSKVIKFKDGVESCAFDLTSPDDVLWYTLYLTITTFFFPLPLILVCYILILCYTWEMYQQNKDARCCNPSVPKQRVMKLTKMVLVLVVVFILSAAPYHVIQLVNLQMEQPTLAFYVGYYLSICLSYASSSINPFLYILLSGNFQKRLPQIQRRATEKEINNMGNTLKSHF
Excerpt: as §1
Stable cell lines expressing either the MCH-1R or the MCH-2R and the aequorin reporter protein were used.
as §2

MCH-2R [5] = molecular target: T2, MCH-2R; assay: Radioligand binding assay (SPA), MCH-2R; conditions: for IC50: MCH-2R IC50, [125I]-[Phe13,Tyr19]-hMCH SPA, COS or CHO MCH-2R membranes
Experimental: as §3, §4, §5, §6

T1 sequence (Q99705 whole entry): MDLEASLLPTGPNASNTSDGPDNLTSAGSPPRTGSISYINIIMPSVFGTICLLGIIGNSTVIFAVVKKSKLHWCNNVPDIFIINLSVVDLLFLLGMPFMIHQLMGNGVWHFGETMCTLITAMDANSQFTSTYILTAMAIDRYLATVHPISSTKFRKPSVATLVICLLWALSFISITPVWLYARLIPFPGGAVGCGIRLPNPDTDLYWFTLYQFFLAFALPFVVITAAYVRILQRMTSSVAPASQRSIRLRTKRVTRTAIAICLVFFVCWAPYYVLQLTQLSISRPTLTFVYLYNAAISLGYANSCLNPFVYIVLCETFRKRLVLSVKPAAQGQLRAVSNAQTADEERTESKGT

Row | SMILES | binding to hMCH-1R in words (MCH-1R [1]) | Selectivity 2/1 (MCH-2R/MCH-1R IC50 binding ratio) (MCH-1R [1]) | IC50 (MCH-1R [2]) [nM] | Selectivity 2/1 (MCH-2R/MCH-1R EC50 activity ratio) (MCH-1R [3]) | MCH-1R Activation % (MCH-1R [3]) [%] | EC50 (MCH-2R [4]) [nM] | MCH-2R Activation % (MCH-2R [4]) [%] | fold weaker binding at hMCH-2R (MCH-2R [5]; relative to Ac-hMCH(6-16)-NH2) | fold lower binding affinity at hMCH-1R (MCH-1R [1]; relative to Ac-hMCH(6-16)-NH2) | fold lower agonist activity at hMCH-1R (MCH-1R [3]) [fold] | binding to hMCH-2R in words (MCH-2R [5]) | IC50 (MCH-2R [5]) [nM] | agonism at hMCH-1R in words (MCH-1R [3]) | agonism at hMCH-2R in words (MCH-2R [4]) | EC50 (MCH-1R [3]) [nM] | fold lower agonist potency at hMCH-2R (MCH-2R [4]; relative to Ac-hMCH(6-16)-NH2) [fold] | fold more selective as agonist for hMCH-1R than hMCH-2R (MCH-1R [3])
1 | CSCC[C@@H]1NC(=O)[C@@H](NC(=O)[C@H](N)CCCNC(=N)N)CSSC[C@@H](C(N)=O)NC(=O)[C@@H]2CCCN2C(=O)[C@H](CCCNC(=N)N)NC(=O)[C@H](Cc2ccc(O)cc2)NC(=O)[C@H](C(C)C)NC(=O)[C@H](CCCNC(=N)N)NC(=O)CNC(=O)[C@H](CC(C)C)NC1=O [SEQ. ID. NO. 4] | equipotent to Ac-hMCH(6-16)-NH2 | 130 | 35 | 0.5 | 130 | 55 | 83 | more than 10 fold | – | – | – | – | – | – | – | – | –
2 | CSCC[C@@H]1NC(=O)[C@@H](NC(=O)[C@@H](CCCCN)NC(C)=O)CSSC[C@@H](C(N)=O)NC(=O)[C@@H]2CCCN2C(=O)[C@H](CCCNC(=N)N)NC(=O)[C@H](Cc2ccc(O)cc2)NC(=O)[C@H](C(C)C)NC(=O)[C@H](CCCNC(=N)N)NC(=O)CNC(=O)[C@H](CC(C)C)NC1=O [SEQ. ID. NO. 13] | – | 3800 | 0.3 | 22 | 130 | – | 55 | – | – | – | – | – | – | – | – | – | –
3 | CSCC[C@@H]1NC(=O)CCSSC[C@@H](C(N)=O)NC(=O)[C@@H]2CCCN2C(=O)[C@H](CCCNC(=N)N)NC(=O)[C@H](Cc2ccc(O)cc2)NC(=O)[C@H](C(C)C)NC(=O)[C@H](CCCNC(=N)N)NC(=O)CNC(=O)[C@H](CC(C)C)NC1=O [SEQ. ID. NO. 15] | – | 500 | – | 5 | 92 | > 3000 | 47 | – | about 5 fold | ~30 | very weak ligand | 3500 | – | – | – | – | –
4 | CSCC[C@@H]1NC(=O)[C@@H](NC(=O)[C@H](CCCNC(=N)N)NC(C)=O)CSSC[C@@H](C(N)=O)NC(=O)[C@@H]2CCCN2C(=O)[C@H](CCCNC(=N)N)NC(=O)[C@H](Cc2ccc(O)cc2)NC(=O)[C@H](C(C)C)NC(=O)[C@H](CCCNC(=N)N)NC(=O)[C@H](CC2CCCCC2)NC(=O)[C@H](CC(C)C)NC1=O [SEQ. ID. NO. 19] | – | 11 | – | 0.25 | 76 | – | 74 | – | – | – | – | 55 | poorly activated both receptors | poorly activated both receptors | – | – | –
5 | CSCC[C@@H]1NC(=O)[C@@H](NC(=O)[C@H](CCCNC(=N)N)NC(C)=O)CSSC[C@@H](C(N)=O)NC(=O)[C@@H]2CCCN2C(=O)[C@H](CCCNC(=N)N)NC(=O)[C@H](Cc2ccc(O)cc2)NC(=O)[C@H](C(C)C)NC(=O)[C@H](CCCNC(=N)N)NC(=O)[C@H](Cc2ccccc2)NC(=O)[C@H](CC(C)C)NC1=O [SEQ. ID. NO. 20] (HELM PEPTIDE1{[ac].R.C.M.L.F.R.V.Y.R.P.C.[am]}$PEPTIDE1,PEPTIDE1,3:R3-12:R3$$$V2.0) | – | 19 | 0.1 | 0.75 | 75 | – | 88 | – | – | – | – | 1.9 | – | – | 66 | – | –
6 | CSCC[C@@H]1NC(=O)[C@@H](NC(=O)[C@H](CCCNC(=N)N)NC(C)=O)CSSC[C@@H](C(N)=O)NC(=O)[C@@H]2CCCN2C(=O)[C@H](CCCNC(=N)N)NC(=O)[C@H](Cc2ccc(O)cc2)NC(=O)[C@H](C(C)C)NC(=O)[C@H](CCCNC(=N)N)NC(=O)[C@@H]2CCCN2C(=O)[C@H](CC(C)C)NC1=O [SEQ. ID. NO. 22] | – | 5 | – | – | 10 | – | 13 | – | – | – | – | 3500 | virtually inactive at micromolar concentrations | virtually inactive at micromolar concentrations | > 10000 | – | –
7 | CSCC[C@@H]1NC(=O)[C@@H](NC(=O)[C@H](CCCNC(=N)N)NC(C)=O)CSSC[C@@H](C(N)=O)NC(=O)[C@@H]2CCCN2C(=O)[C@H](CCCNC(=N)N)NC(=O)[C@H](Cc2ccc(O)cc2)NC(=O)[C@H](C(C)C)NC(=O)[C@H](CCCNC(=N)N)NC(=O)[C@H](CCCCN)NC(=O)[C@H](CC(C)C)NC1=O [SEQ. ID. NO. 24] | – | 86 | – | 1 | 43 | – | 40 | – | – | 300 | – | 1460 | – | – | – | 300 | –
8 | CSCC[C@@H]1NC(=O)[C@@H](NC(=O)[C@H](CCCNC(=N)N)NC(C)=O)CSSC[C@@H](C(N)=O)NC(=O)[C@@H]2CCCN2C(=O)[C@H](CCCNC(=N)N)NC(=O)[C@H](Cc2ccc(O)cc2)NC(=O)[C@H](C(C)C)NC(=O)[C@H](CCCNC(=N)N)NC(=O)[C@H](CC(N)=O)NC(=O)[C@H](CC(C)C)NC1=O [SEQ. ID. NO. 25] (HELM PEPTIDE1{[ac].R.C.M.L.N.R.V.Y.R.P.C.[am]}$PEPTIDE1,PEPTIDE1,3:R3-12:R3$$$V2.0) | – | 1800 | 0.28 | 4.7 | 126 | – | 86 | – | – | – | – | – | – | – | 51 | – | –
9 | CSCC[C@@H]1NC(=O)[C@@H](NC(=O)[C@H](CCCNC(=N)N)NC(C)=O)CSSC[C@@H](C(N)=O)NC(=O)[C@@H]2CCCN2C(=O)[C@H](CCCNC(=N)N)NC(=O)[C@H](Cc2ccc(O)cc2)NC(=O)[C@H](C(C)C)NC(=O)[C@H](CCCNC(=N)N)NC(=O)[C@H](CO)NC(=O)[C@H](CC(C)C)NC1=O [SEQ. ID. NO. 26] (HELM PEPTIDE1{[ac].R.C.M.L.S.R.V.Y.R.P.C.[am]}$PEPTIDE1,PEPTIDE1,3:R3-12:R3$$$V2.0) | – | 100 | – | 0.7 | 120 | – | 87 | – | – | – | – | 55 | – | – | – | – | –
10 | CSCC[C@@H]1NC(=O)[C@@H](NC(=O)[C@@H](CCCNC(=N)N)NC(C)=O)CSSC[C@@H](C(N)=O)NC(=O)[C@@H]2CCCN2C(=O)[C@H](CCCNC(=N)N)NC(=O)[C@H](Cc2ccc(O)cc2)NC(=O)[C@H](C(C)C)NC(=O)[C@H](CCCNC(=N)N)NC(=O)[C@H](CC(N)=O)NC(=O)[C@H](CC(C)C)NC1=O [SEQ. ID. NO. 29] (HELM PEPTIDE1{[ac].[dR].C.M.L.N.R.V.Y.R.P.C.[am]}$PEPTIDE1,PEPTIDE1,3:R3-12:R3$$$V2.0) | – | 6600 | 0.5 | 150 | 120 | – | 20 | – | – | – | – | – | activated hMCH-1R almost as efficiently as Ac-hMCH(6-16)NH2 | – | – | – | about 150 fold
11 | CCCC[C@@H]1NC(=O)[C@@H](NC(=O)[C@@H](CCCNC(=N)N)NC(C)=O)CSSC[C@@H](C(N)=O)NC(=O)[C@@H]2CCCN2C(=O)[C@H](CCCNC(=N)N)NC(=O)[C@H](Cc2ccc(O)cc2)NC(=O)[C@H](C(C)C)NC(=O)[C@H](CCCNC(=N)N)NC(=O)[C@H](CC(N)=O)NC(=O)[C@H](CC(C)C)NC1=O [SEQ. ID. NO. 31] (HELM PEPTIDE1{[ac].[dR].C.[Nle].L.N.R.V.Y.R.P.C.[am]}$PEPTIDE1,PEPTIDE1,3:R3-12:R3$$$V2.0) | – | 5700 | 0.28 | 23 | 130 | – | 23 | – | – | – | – | – | potent and selective hMCH-1R agonists | – | – | – | –
